Results as given in US12059393B2, “Compositions for topical treatment of radiation dermatitis” (Akos Biosciences, Inc, priority 2022, dated 2024).

Tested on: acute radiation-induced dermatitis
Assay: Blinded clinical dermatitis scoring in mouse radiation dermatitis model
Type: in vivo, Balb/c mice
Design: key to Dermatitis score (mean): dermatitis scale 0 to 5, 1.0-unit increments
Details: for Dermatitis score % Change Group 4 vs. Group 3: 30 mg/mL CBD vs olive oil only; for Dermatitis score % Change Group 4 vs. Group 2: 30 mg/mL CBD vs radiation only; for Dermatitis score (mean): Group 4 (30 mg/mL CBD)
Procedure: A study was performed on mice to determine the efficacy of topically-dosed CBD in an olive oil vehicle for the treatment of acute radiation-induced dermatitis. Three different CBD dosages were used— 30 mg/mL (3 wt %), 120 mg/mL (12 wt %), and 250 mg/mL (25 wt %).
144 female Balb/c mice with an average starting body weight (±SEM) of 17.96±0.12 grams were randomized into six (6) groups of 24 animals each, as follows:
The control group (Group 1) was not irradiated. The animals in Groups 2-6 were anesthetized via a single intraperitoneal injection of xylazine and ketamine prior to being administered a single dose of 30 Grays (Gy) of radiation directed at a 2 cm×4 cm patch of shaved dorsal skin on Day 0. Radiation was generated by a 160 kVp (15-ma) X-ray source at a focal distance of 10 cm, hardened with a 0.35 mm Cu filtration system at a rate of approximately 3.2 Gy/minute.
Dosing for animals in Groups 3-6 began on Day 0 immediately after radiation. Treatments were administered topically (0.1 mL per animal) daily from Days 0-28.
Starting on Day 8 and continuing every other day thereafter (Days 8-28), each animal was evaluated for skin redness and dermatitis, and photographed for subsequent blinded scoring of dermatitis at the completion of the study. Body weight was taken daily.
Dermatitis was measured by blinded scoring of photographs at the end of the study. Two independent observers graded the photographs, and results were reported on a scale of 0 to 5 in 1.0 unit increments. The scale is described in the table below:
Data were evaluated using one-way ANOVA with Dunnett's multiple comparisons test to compare all groups to the vehicle control group using GraphPad Prism 8.4.3 (La Jolla, CA Duration of dermatitis data was evaluated using the Chi-square test to compare all groups to the vehicle-control group and radiation only group using SigmaPlot 11.0 (Systat Software, Inc.). Statistical significance was achieved when p<0.05.
The following table provides information on the duration of moderate dermatitis, which is defined as the number of days on which scores were at least 2
Bold values indicate a decrease (improvement), and underlined values indicate an increase (worsening).

[1] = 30 mg/mL CBD, 148 total animal days
[2] = 120 mg/mL CBD, 148 total animal days
[3] = 150 mg/mL CBD, 147 total animal days

`C=C(C)[C@@H]1CCC(C)=C[C@H]1c1c(O)cc(CCCCC)cc1O` [CBD, 2-[(1R,6R)-6-Isopropenyl-3-methylcyclohex-2-en-1-yl]-5-pentylbenzene-1,3-diol] was tested, and the “% Days ≥2” value (30 mg/mL CBD) was 50.68%, the “Mean dermatitis scores compared against Group 2 (radiation only) and Group 3 (olive oil only)” value (30 mg/mL CBD (Group 4)) was “consistently decreased mean dermatitis scores” and the “Percentage of days with moderate dermatitis compared to the Olive oil only group (Group 3)” value (30 mg/mL CBD (Group 4)) was “significantly lower”. The “Percentages of animals with moderate or severe dermatitis” value (30 mg/mL CBD (Group 4), majority of surveyed days, vs olive oil only group) was “reduced percentages of animals with moderate or severe dermatitis”, the “Dermatitis score % Change Group 4 vs. Group 3” value (Day 8) was −22.22% and the “Dermatitis score % Change Group 4 vs. Group 3” value (Day 10) was −18.75%. The “Dermatitis score % Change Group 4 vs. Group 3” value (Day 12) was −21.62%, the “Dermatitis score % Change Group 4 vs. Group 3” value (Day 14) was −20.00% and the “Dermatitis score % Change Group 4 vs. Group 3” value (Day 16) was −23.33%. For the same compound, the “Dermatitis score % Change Group 4 vs. Group 3” value (Day 18) was −34.62%, the “Dermatitis score % Change Group 4 vs. Group 3” value (Day 20) was −38.10% and the “Dermatitis score % Change Group 4 vs. Group 3” value (Day 22) was −17.65%. For the same compound, the “Dermatitis score % Change Group 4 vs. Group 3” value (Day 24) was −23.53%, the “Dermatitis score % Change Group 4 vs. Group 3” value (Day 26) was −29.41% and the “Dermatitis score % Change Group 4 vs. Group 3” value (Day 28) was −31.25%. The “Dermatitis score % Change Group 4 vs. Group 2” value (Day 8) was 101.92%, the “Dermatitis score % Change Group 4 vs. Group 2” value (Day 10) was 10.80% and the “Dermatitis score % Change Group 4 vs. Group 2” value (Day 12) was −15.04%. For the same compound, the “Dermatitis score % Change Group 4 vs. Group 2” value (Day 14) was −8.78%, the “Dermatitis score % Change Group 4 vs. Group 2” value (Day 16) was −29.72% and the “Dermatitis score % Change Group 4 vs. Group 2” value (Day 18) was −35.07%. For the same compound, the “Dermatitis score % Change Group 4 vs. Group 2” value (Day 20) was −43.25%, the “Dermatitis score % Change Group 4 vs. Group 2” value (Day 22) was −32.46% and the “Dermatitis score % Change Group 4 vs. Group 2” value (Day 24) was −40.42%. For the same compound, the “Dermatitis score % Change Group 4 vs. Group 2” value (Day 26) was −42.11%, the “Dermatitis score % Change Group 4 vs. Group 2” value (Day 28) was −46.93% and the “Percentage of Animals with Moderate Dermatitis (≥2)” value (“Percentage of Animals … (≥2)” below) (30 mg/mL CBD, Day 8) was 18.8%. For the same compound, the “Percentage of Animals with Moderate Dermatitis (≥3)” value (from here on “Percentage of Animals … (≥3)”) (30 mg/mL CBD, Day 8) was 0%, the “Percentage of Animals … (≥2)” value (30 mg/mL CBD, Day 10) was 75% and the “Percentage of Animals … (≥3)” value (30 mg/mL CBD, Day 10) was 6.3%. The “Percentage of Animals … (≥2)” value (30 mg/mL CBD, Day 12) was 81.3%, the “Percentage of Animals … (≥3)” value (30 mg/mL CBD, Day 12) was 18.8% and the “Percentage of Animals … (≥2)” value (30 mg/mL CBD, Day 14) was 75%. The “Percentage of Animals … (≥3)” value (30 mg/mL CBD, Day 14) was 56.3%, the “Percentage of Animals … (≥2)” value (30 mg/mL CBD, Day 16) was 75% and the “Percentage of Animals … (≥3)” value (30 mg/mL CBD, Day 16) was 41.7%. For the same compound, the “Percentage of Animals … (≥2)” value (30 mg/mL CBD, Day 18) was 66.7%, the “Percentage of Animals … (≥3)” value (30 mg/mL CBD, Day 18) was 0% and the “Percentage of Animals … (≥2)” value (30 mg/mL CBD, Day 20) was 33.3%. For the same compound, the “Percentage of Animals … (≥3)” value (30 mg/mL CBD, Day 20) was 0%, the “Percentage of Animals … (≥2)” value (30 mg/mL CBD, Day 22) was 47.7% and the “Percentage of Animals … (≥3)” value (30 mg/mL CBD, Day 22) was 0%. For the same compound, the “Percentage of Animals … (≥2)” value (30 mg/mL CBD, Day 24) was 33.3%, the “Percentage of Animals … (≥3)” value (30 mg/mL CBD, Day 24) was 0% and the “Percentage of Animals … (≥2)” value (30 mg/mL CBD, Day 26) was 25%. For the same compound, the “Percentage of Animals … (≥3)” value (30 mg/mL CBD, Day 26) was 0%, the “Percentage of Animals … (≥2)” value (30 mg/mL CBD, Day 28) was 16.7% and the “Percentage of Animals … (≥3)” value (30 mg/mL CBD, Day 28) was 0%. For the same compound, the “Days <2 (animal days)” value [1] was 73, the “Days ≥2 (duration of moderate dermatitis, animal days)” value [1] was 75 and the “% Days ≥2” value (120 mg/mL CBD) was 59.46%. The “Percentage of Animals … (≥2)” value (120 mg/mL CBD, Day 8) was 18.8%, the “Percentage of Animals … (≥3)” value (120 mg/mL CBD, Day 8) was 0% and the “Percentage of Animals … (≥2)” value (120 mg/mL CBD, Day 10) was 87.5%. The “Percentage of Animals … (≥3)” value (120 mg/mL CBD, Day 10) was 6.3%, the “Percentage of Animals … (≥2)” value (120 mg/mL CBD, Day 12) was 93.8% and the “Percentage of Animals … (≥3)” value (120 mg/mL CBD, Day 12) was 50%. For the same compound, the “Percentage of Animals … (≥2)” value (120 mg/mL CBD, Day 14) was 100%, the “Percentage of Animals … (≥3)” value (120 mg/mL CBD, Day 14) was 75% and the “Percentage of Animals … (≥2)” value (120 mg/mL CBD, Day 16) was 83.3%. For the same compound, the “Percentage of Animals … (≥3)” value (120 mg/mL CBD, Day 16) was 25%, the “Percentage of Animals … (≥2)” value (120 mg/mL CBD, Day 18) was 83.3% and the “Percentage of Animals … (≥3)” value (120 mg/mL CBD, Day 18) was 8.3%. For the same compound, the “Percentage of Animals … (≥2)” value (120 mg/mL CBD, Day 20) was 58.3%, the “Percentage of Animals … (≥3)” value (120 mg/mL CBD, Day 20) was 0% and the “Percentage of Animals … (≥2)” value (120 mg/mL CBD, Day 22) was 33.3%. The “Percentage of Animals … (≥3)” value (120 mg/mL CBD, Day 22) was 0%, the “Percentage of Animals … (≥2)” value (120 mg/mL CBD, Day 24) was 33.3% and the “Percentage of Animals … (≥3)” value (120 mg/mL CBD, Day 24) was 0%. The “Percentage of Animals … (≥2)” value (120 mg/mL CBD, Day 26) was 33.3%, the “Percentage of Animals … (≥3)” value (120 mg/mL CBD, Day 26) was 0% and the “Percentage of Animals … (≥2)” value (120 mg/mL CBD, Day 28) was 8.3%. For the same compound, the “Percentage of Animals … (≥3)” value (120 mg/mL CBD, Day 28) was 0%, the “Days <2 (animal days)” value [2] was 60 and the “Days ≥2 (duration of moderate dermatitis, animal days)” value [2] was 88. The “Days <2 (animal days)” value [3] was 57, the “Days ≥2 (duration of moderate dermatitis, animal days)” value [3] was 90 and the “Percentage of Animals … (≥2)” value (250 mg/mL CBD, Day 8) was 12.5%. The “Percentage of Animals … (≥3)” value (250 mg/mL CBD, Day 8) was 6.3%, the “Percentage of Animals … (≥2)” value (250 mg/mL CBD, Day 10) was 75% and the “Percentage of Animals … (≥3)” value (250 mg/mL CBD, Day 10) was 12.5%. For the same compound, the “Percentage of Animals … (≥2)” value (250 mg/mL CBD, Day 12) was 100%, the “Percentage of Animals … (≥3)” value (250 mg/mL CBD, Day 12) was 62.5% and the “Percentage of Animals … (≥2)” value (250 mg/mL CBD, Day 14) was 93.8%. The “Percentage of Animals … (≥3)” value (250 mg/mL CBD, Day 14) was 93.3%, the “Percentage of Animals … (≥2)” value (250 mg/mL CBD, Day 16) was 93.7% and the “Percentage of Animals … (≥3)” value (250 mg/mL CBD, Day 16) was 75%. For the same compound, the “Percentage of Animals … (≥2)” value (250 mg/mL CBD, Day 18) was 83.3%, the “Percentage of Animals … (≥3)” value (250 mg/mL CBD, Day 18) was 58.3% and the “Percentage of Animals … (≥2)” value (250 mg/mL CBD, Day 20) was 66.7%. The “Percentage of Animals … (≥3)” value (250 mg/mL CBD, Day 20) was 25%, the “Percentage of Animals … (≥2)” value (250 mg/mL CBD, Day 22) was 33.3% and the “Percentage of Animals … (≥3)” value (250 mg/mL CBD, Day 22) was 0%. The “Percentage of Animals … (≥2)” value (250 mg/mL CBD, Day 24) was 50%, the “Percentage of Animals … (≥3)” value (250 mg/mL CBD, Day 24) was 0% and the “Percentage of Animals … (≥2)” value (250 mg/mL CBD, Day 26) was 50%. The “Percentage of Animals … (≥3)” value (250 mg/mL CBD, Day 26) was 0%, the “Percentage of Animals … (≥2)” value (250 mg/mL CBD, Day 28) was 0% and the “Percentage of Animals … (≥3)” value (250 mg/mL CBD, Day 28) was 0%. The “Dermatitis score (mean)” value (Day 8) was 0.88, the “Dermatitis score (mean)” value (Day 10) was 1.63 and the “Dermatitis score (mean)” value (Day 12) was 1.81. For the same compound, the “Dermatitis score (mean)” value (Day 14) was 2.25, the “Dermatitis score (mean)” value (Day 16) was 1.92 and the “Dermatitis score (mean)” value (Day 18) was 1.42. The “Dermatitis score (mean)” value (Day 20) was 1.08, the “Dermatitis score (mean)” value (Day 22) was 1.17 and the “Dermatitis score (mean)” value (Day 24) was 1.08. For the same compound, the “Dermatitis score (mean)” value (Day 26) was 1.00, the “Dermatitis score (mean)” value (Day 28) was 0.92 and the “Percentage of days with moderate dermatitis compared to the irradiated group (Group 2)” value (all CBD-treated groups (Groups 4, 5, 6)) was “significantly lower”.
